Measured values as given in ChEMBL document CHEMBL4507319 (2021).

Legend:
[1] = target: Tyrosine-protein kinase ABL1 (Homo sapiens) (UniProt P00519); settings: Compound concentration 1000.0 nM
[2] = target: Transient receptor potential cation channel subfamily M member 6 (Homo sapiens) (UniProt Q9BX84); settings: Compound concentration 1000.0 nM
[3] = target: T1, TGF-beta receptor type-1 (Homo sapiens) (UniProt P36897); settings: Compound concentration 1000.0 nM
T1 sequence (whole entry): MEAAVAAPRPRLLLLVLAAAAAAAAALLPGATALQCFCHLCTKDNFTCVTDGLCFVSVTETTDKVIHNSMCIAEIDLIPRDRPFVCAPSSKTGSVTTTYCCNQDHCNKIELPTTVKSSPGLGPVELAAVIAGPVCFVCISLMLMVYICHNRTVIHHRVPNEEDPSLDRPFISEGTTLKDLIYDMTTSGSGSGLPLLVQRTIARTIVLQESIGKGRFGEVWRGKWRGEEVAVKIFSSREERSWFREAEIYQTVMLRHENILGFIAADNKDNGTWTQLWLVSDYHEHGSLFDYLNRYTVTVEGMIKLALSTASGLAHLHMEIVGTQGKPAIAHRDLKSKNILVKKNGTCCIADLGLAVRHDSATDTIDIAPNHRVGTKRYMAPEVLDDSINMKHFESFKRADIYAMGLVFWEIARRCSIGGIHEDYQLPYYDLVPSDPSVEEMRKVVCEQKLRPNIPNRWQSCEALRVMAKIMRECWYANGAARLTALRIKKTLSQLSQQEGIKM

[4] = target: Ribosomal protein S6 kinase alpha-3 (Homo sapiens, UniProt P51812); settings: Compound concentration 1000.0 nM
[5] = target: Mitogen-activated protein kinase kinase kinase 13 (Homo sapiens) (UniProt O43283); settings: Compound concentration 1000.0 nM
[6] = target: T2, G protein-coupled receptor kinase 3 (Homo sapiens) (UniProt P35626); settings: Compound concentration 1000.0 nM
T2 sequence (whole entry): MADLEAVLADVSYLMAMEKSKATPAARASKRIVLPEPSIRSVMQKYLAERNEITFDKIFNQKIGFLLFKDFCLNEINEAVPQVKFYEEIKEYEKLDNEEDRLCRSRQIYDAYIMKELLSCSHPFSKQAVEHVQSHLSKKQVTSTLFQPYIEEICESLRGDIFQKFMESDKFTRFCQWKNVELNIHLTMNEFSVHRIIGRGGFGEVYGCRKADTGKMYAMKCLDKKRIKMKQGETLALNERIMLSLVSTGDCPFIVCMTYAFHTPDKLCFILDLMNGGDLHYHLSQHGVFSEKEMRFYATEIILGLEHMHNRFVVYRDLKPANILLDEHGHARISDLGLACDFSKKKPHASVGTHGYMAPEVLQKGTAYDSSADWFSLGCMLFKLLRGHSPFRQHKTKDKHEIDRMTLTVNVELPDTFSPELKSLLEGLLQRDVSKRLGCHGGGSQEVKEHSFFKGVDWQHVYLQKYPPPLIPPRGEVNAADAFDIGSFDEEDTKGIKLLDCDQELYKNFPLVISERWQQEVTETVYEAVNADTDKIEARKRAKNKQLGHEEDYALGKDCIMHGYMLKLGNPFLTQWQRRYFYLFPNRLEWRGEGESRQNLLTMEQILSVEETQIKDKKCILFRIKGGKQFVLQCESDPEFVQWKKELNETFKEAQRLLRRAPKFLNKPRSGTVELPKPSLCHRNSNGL

[7] = target: Cyclin-dependent kinase 5 (Homo sapiens) (UniProt Q00535); settings: Compound concentration 1000.0 nM
Cyclin-dependent kinase 5 (Homo sapiens), sequence (Q00535 whole entry, looked up): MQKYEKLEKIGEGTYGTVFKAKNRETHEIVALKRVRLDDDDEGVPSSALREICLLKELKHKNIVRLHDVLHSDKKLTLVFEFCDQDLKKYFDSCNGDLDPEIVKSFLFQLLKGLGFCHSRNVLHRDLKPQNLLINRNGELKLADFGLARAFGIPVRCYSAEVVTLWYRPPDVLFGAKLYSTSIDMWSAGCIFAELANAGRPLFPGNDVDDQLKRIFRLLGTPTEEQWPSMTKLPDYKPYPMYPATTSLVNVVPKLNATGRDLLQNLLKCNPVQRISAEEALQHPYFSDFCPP

[8] = target: Leukocyte tyrosine kinase receptor (Homo sapiens) (UniProt P29376); settings: Compound concentration 1000.0 nM
[9] = target: Proto-oncogene tyrosine-protein kinase receptor Ret (Homo sapiens) (UniProt P07949); settings: Compound concentration 1000.0 nM
Proto-oncogene tyrosine-protein kinase receptor Ret (Homo sapiens), sequence (P07949 whole entry): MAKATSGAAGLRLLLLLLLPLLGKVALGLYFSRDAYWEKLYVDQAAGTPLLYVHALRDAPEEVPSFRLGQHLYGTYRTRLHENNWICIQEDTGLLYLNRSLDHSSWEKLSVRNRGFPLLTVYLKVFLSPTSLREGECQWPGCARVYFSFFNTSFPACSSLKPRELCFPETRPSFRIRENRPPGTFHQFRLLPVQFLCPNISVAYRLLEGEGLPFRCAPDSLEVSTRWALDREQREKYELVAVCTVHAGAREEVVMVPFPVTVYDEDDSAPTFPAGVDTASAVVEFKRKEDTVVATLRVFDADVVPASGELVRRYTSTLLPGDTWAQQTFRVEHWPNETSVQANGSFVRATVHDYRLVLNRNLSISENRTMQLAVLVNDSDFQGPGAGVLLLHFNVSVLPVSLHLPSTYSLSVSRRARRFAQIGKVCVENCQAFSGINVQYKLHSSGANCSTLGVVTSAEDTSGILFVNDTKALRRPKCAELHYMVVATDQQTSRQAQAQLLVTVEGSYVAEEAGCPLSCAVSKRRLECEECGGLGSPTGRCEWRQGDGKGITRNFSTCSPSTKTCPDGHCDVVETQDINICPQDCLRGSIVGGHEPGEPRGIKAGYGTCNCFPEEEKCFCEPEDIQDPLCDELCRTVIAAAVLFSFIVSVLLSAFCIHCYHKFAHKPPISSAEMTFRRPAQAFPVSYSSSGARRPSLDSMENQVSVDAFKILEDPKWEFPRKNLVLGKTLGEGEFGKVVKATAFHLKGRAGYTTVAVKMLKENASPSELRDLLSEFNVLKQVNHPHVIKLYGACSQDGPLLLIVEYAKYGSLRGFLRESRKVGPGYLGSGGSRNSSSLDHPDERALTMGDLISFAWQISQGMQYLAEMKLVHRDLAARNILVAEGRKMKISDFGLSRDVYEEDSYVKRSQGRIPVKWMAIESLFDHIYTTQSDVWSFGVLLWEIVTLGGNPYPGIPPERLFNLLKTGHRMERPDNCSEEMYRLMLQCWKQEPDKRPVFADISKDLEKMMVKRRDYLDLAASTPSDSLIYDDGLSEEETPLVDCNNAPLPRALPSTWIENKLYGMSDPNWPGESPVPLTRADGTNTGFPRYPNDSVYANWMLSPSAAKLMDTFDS

[10] = target: Cyclin-dependent kinase 3 (Homo sapiens) (UniProt Q00526); settings: Compound concentration 1000.0 nM
Cyclin-dependent kinase 3 (Homo sapiens), sequence (Q00526 whole entry, looked up): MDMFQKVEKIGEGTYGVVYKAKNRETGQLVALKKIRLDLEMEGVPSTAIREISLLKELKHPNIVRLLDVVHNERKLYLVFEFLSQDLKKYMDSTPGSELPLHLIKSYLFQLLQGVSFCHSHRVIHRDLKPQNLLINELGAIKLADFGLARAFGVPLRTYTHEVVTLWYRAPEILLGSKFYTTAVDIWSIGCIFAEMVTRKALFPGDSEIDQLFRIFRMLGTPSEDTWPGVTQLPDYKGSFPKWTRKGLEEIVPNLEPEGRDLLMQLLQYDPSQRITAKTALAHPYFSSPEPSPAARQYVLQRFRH

[11] = target: T3, Serine/threonine-protein kinase MAK (Homo sapiens) (UniProt P20794); settings: Compound concentration 1000.0 nM
T3 sequence (whole entry): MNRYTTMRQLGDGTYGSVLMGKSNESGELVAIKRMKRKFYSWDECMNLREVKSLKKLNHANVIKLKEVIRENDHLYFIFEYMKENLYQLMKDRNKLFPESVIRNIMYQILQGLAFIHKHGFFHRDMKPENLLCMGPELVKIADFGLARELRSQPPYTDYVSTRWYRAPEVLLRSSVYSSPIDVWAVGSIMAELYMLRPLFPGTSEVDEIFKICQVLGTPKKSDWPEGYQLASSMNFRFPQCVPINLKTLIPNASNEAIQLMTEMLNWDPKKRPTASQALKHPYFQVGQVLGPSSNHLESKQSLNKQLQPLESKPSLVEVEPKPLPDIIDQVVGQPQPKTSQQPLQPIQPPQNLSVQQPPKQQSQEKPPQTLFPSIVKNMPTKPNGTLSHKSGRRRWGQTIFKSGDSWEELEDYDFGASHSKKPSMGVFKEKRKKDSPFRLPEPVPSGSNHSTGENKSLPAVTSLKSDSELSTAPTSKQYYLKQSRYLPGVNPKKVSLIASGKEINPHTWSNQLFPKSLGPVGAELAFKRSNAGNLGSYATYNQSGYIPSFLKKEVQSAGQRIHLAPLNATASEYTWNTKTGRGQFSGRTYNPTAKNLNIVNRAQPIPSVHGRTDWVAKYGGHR

[12] = target: Mitogen-activated protein kinase 14 (Homo sapiens) (UniProt Q16539); settings: Compound concentration 1000.0 nM
Mitogen-activated protein kinase 14 (Homo sapiens), sequence (Q16539 whole entry): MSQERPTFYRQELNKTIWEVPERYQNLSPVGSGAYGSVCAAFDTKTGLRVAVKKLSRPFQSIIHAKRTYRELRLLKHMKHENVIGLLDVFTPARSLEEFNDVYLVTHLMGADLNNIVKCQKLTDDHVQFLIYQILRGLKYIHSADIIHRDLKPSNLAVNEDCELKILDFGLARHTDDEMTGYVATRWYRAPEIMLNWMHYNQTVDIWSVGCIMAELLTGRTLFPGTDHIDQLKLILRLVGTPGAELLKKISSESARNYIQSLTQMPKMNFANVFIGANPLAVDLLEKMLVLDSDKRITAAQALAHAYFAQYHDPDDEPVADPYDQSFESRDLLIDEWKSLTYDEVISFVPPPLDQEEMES

[13] = target: Aurora kinase C (Homo sapiens) (UniProt Q9UQB9); settings: Compound concentration 1000.0 nM
Aurora kinase C (Homo sapiens), sequence (Q9UQB9 whole entry): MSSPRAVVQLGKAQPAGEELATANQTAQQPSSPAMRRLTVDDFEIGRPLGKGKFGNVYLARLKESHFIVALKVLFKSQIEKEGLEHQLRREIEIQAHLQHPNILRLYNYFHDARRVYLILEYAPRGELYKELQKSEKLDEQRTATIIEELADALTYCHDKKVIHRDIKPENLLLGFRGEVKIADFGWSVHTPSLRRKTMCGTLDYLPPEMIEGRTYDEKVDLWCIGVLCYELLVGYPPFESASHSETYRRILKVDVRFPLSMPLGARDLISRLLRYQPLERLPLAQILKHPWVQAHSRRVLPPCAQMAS

[14] = target: Muscarinic acetylcholine receptor M1 (Homo sapiens) (UniProt P11229); settings: Compound concentration 10.0 uM
[15] = target: Cyclin-dependent kinase 4 (Homo sapiens) (UniProt P11802); settings: Compound concentration 1000.0 nM
Cyclin-dependent kinase 4 (Homo sapiens), sequence (P11802 whole entry): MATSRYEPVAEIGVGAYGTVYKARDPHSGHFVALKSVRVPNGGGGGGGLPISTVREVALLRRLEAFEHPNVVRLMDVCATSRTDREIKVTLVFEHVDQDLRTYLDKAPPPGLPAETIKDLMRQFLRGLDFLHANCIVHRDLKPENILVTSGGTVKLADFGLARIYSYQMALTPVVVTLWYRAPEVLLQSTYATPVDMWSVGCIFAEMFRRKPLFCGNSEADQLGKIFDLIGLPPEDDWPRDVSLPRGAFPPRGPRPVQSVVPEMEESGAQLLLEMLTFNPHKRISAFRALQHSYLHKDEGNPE

[16] = target: Protein kinase C eta type (Homo sapiens) (UniProt P24723); settings: Compound concentration 1000.0 nM
Protein kinase C eta type (Homo sapiens), sequence (P24723 whole entry): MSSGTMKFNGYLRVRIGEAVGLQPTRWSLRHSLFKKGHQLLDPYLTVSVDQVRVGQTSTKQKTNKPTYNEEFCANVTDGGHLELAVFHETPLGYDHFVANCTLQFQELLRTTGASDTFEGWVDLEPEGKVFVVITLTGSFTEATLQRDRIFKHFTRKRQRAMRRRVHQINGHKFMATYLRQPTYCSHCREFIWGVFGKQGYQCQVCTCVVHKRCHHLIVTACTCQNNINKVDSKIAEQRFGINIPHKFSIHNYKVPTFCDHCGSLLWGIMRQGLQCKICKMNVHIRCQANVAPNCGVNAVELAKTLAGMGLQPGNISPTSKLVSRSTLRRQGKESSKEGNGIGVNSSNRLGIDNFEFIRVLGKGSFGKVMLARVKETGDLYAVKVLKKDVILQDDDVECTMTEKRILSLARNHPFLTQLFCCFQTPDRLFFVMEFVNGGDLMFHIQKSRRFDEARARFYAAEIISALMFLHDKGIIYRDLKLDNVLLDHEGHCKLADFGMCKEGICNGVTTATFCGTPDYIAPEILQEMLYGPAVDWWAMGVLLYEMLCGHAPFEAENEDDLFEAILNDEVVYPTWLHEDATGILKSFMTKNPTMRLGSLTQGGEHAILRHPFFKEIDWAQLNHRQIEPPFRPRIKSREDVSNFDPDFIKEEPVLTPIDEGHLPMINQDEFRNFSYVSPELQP

[17] = target: RAF proto-oncogene serine/threonine-protein kinase (Homo sapiens) (UniProt P04049); settings: Compound concentration 1000.0 nM
[18] = target: Serine/threonine-protein kinase 26 (Homo sapiens) (UniProt Q9P289); settings: Compound concentration 1000.0 nM
[19] = target: Protein-tyrosine kinase 6 (Homo sapiens) (UniProt Q13882); settings: Compound concentration 1000.0 nM
Protein-tyrosine kinase 6 (Homo sapiens), sequence (Q13882 whole entry, looked up): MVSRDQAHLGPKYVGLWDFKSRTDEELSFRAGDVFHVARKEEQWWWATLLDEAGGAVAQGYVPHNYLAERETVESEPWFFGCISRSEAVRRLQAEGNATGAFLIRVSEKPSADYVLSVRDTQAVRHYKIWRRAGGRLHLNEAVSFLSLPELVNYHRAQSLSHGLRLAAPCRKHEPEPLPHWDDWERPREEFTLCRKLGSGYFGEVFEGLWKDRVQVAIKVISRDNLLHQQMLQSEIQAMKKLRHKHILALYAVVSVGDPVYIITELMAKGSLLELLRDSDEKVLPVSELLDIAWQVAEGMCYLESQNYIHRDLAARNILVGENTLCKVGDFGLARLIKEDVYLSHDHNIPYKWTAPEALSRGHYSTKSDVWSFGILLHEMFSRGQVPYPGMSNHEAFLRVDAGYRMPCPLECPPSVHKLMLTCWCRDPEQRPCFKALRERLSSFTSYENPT

[20] = target: Calcium/calmodulin-dependent protein kinase type II subunit gamma (Homo sapiens) (UniProt Q13555); settings: Compound concentration 1000.0 nM
[21] = target: Dual specificity mitogen-activated protein kinase kinase 1 (Homo sapiens) (UniProt Q02750); settings: Compound concentration 1000.0 nM

Tyrosine-protein kinase ABL1 (Homo sapiens), sequence (P00519 whole entry): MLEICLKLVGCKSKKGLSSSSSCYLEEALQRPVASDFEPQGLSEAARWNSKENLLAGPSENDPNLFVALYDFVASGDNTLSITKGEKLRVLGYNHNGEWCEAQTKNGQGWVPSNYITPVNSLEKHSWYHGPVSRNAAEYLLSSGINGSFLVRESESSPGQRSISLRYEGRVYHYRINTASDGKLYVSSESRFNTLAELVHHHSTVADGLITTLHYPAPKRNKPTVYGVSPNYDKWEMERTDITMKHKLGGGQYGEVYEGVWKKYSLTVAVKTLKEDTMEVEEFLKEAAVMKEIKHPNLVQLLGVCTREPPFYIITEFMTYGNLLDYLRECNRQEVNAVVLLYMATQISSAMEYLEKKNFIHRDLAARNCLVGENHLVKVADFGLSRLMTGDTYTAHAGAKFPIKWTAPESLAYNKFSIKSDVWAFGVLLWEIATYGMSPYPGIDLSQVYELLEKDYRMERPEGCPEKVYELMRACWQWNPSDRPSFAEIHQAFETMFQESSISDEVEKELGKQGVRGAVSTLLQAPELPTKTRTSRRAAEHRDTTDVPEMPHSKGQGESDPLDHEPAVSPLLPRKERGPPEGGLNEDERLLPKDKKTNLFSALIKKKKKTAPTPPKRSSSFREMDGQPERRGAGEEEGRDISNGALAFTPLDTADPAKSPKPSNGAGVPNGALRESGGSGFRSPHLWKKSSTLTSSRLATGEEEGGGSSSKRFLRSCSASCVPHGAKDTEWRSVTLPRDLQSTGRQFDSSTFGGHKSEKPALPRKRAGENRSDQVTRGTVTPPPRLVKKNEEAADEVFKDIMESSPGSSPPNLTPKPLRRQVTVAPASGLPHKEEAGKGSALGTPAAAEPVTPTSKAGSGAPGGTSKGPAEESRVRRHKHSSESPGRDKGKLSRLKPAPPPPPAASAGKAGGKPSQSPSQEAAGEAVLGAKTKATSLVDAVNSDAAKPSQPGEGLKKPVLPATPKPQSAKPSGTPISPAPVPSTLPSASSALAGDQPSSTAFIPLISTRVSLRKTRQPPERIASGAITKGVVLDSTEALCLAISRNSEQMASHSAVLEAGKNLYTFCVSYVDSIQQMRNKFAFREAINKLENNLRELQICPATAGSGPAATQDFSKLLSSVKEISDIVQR

Structure (SMILES)	residual activity [1]	residual activity [2]	residual activity [3]	residual activity [4]	residual activity [5]	residual activity [6]	residual activity [7]	residual activity [8]	residual activity [9]	residual activity [10]	residual activity [11]	residual activity [12]	residual activity [13]	inhibition [14]	residual activity [15]	residual activity [16]	residual activity [17]	residual activity [18]	residual activity [19]	residual activity [20]	further results
CC1=C(C#N)C(c2ccc3c(c2)c(NC(=O)c2ccccc2C)nn3C)C(C#N)=C(C)N1 [BAY-974]	86%	91%	100%	86%	99%	93%	87%	70%	97%	99%	100%	88%	97%	-1.37%	100%	94%	100%	100%	100%	100%	residual activity [21]: 87%
CCc1ccccc1C(=O)Nc1n[nH]c2c(C)c(F)c(C3C(C#N)=C(C)N(C)C(C)=C3C#N)cc12 [BAY-3827]	78%	100%	58%	0.3%	100%	100%	89%	94%	65%	88%	100%	100%	29%	2.81%	98%	32%	63%	98%	100%	79%	residual activity [21]: 100%
